Laboratory results taken from ChEMBL document CHEMBL3774317, “Design and synthesis of novel tamoxifen analogues that avoid CYP2D6 metabolism” (Eur J Med Chem, 2016).

What was measured:
Estrogen receptor = biological target: T1, Estrogen receptor (Homo sapiens, UniProt P03372)
T1 sequence (P03372 whole entry): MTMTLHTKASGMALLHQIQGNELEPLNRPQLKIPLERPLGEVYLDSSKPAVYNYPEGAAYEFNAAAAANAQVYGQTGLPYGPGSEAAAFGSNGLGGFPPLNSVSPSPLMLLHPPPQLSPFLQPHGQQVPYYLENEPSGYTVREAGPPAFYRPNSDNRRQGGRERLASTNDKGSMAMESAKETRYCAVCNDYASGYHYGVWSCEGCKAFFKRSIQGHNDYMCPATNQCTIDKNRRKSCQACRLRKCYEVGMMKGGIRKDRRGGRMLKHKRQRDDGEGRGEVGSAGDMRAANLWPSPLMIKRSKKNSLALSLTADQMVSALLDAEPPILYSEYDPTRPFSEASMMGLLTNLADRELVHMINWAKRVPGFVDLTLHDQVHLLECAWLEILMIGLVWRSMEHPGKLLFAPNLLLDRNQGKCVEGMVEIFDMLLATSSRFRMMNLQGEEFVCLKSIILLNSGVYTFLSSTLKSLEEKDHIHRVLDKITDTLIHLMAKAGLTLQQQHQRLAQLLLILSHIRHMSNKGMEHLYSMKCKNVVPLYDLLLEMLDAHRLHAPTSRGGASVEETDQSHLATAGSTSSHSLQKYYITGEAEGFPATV
Description: Displacement of [3H]-E2 from human ER-alpha incubated for 16 to 20 hrs by liquid scintillation counting analysis

MCF7 [1] = assay: Antiproliferative activity against human MCF7 cells after 72 hrs by MTT assay
MDA-MB-435 = assay: Cytotoxicity against human MDA-MB-435 cells assessed as growth inhibition after 48 hrs by SRB assay; assay type: functional; settings: MDA-MB-435, 48 h
MCF7 [2] = assay: Cytotoxicity against human MCF7 cells assessed as growth inhibition after 48 hrs by SRB assay; assay type: functional; settings: MCF7, 48 h
[3] = Cytotoxicity against human SKOV3 cells assessed as growth inhibition after 48 hrs by SRB assay; assay type: functional; settings: SK-OV-3, 48 h
[4] = Cytotoxicity against human UO31 cells assessed as growth inhibition after 48 hrs by SRB assay; assay type: functional; settings: UO-31, 48 h
[5] = Cytotoxicity against human MOLT4 cells assessed as growth inhibition after 48 hrs by SRB assay; assay type: functional; settings: MOLT-4, 48 h
EKVX = assay: Cytotoxicity against human EKVX cells assessed as growth inhibition after 48 hrs by SRB assay; assay type: functional
MDA-MB-468 = assay: Cytotoxicity against human MDA-MB-468 cells assessed as growth inhibition after 48 hrs by SRB assay; assay type: functional; settings: MDA-MB-468, 48 h
[6] = Cytotoxicity against human HCT15 cells assessed as growth inhibition after 48 hrs by SRB assay; assay type: functional; settings: HCT-15, 48 h
[7] = Cytotoxicity against human SNB75 cells assessed as growth inhibition after 48 hrs by SRB assay; assay type: functional; settings: SNB-75, 48 h
Estrogen receptor beta = Estrogen receptor beta (Homo sapiens, UniProt Q92731)
Sequence of Estrogen receptor beta (Q92731 whole entry): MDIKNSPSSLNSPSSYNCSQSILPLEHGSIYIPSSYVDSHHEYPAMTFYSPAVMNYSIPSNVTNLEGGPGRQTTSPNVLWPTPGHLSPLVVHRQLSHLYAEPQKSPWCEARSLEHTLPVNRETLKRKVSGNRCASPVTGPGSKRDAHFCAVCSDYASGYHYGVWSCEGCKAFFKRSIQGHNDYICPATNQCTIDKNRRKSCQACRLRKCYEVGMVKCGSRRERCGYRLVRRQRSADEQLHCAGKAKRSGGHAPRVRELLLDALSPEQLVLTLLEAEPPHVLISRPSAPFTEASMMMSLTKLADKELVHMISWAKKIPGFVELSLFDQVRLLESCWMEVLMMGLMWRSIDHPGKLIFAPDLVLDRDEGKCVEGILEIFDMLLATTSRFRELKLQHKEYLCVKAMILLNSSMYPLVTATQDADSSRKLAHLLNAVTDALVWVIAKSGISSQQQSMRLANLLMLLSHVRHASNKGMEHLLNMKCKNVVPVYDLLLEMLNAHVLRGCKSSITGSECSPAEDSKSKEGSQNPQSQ
Description: Displacement of [3H]-E2 from human ER-beta incubated for 16 to 20 hrs by liquid scintillation counting analysis

CC(=O)Oc1ccc(/C(=C(/C)c2ccccc2)c2ccc(OCCN3CCCCC3)cc2)cc1
IC50 (Estrogen receptor): 12.4 nM | IC50 (MCF7 [1]; mcf7): 2460 nM

CC/C(=C(\c1ccccc1)c1ccc(OCCN(C)C)cc1)c1ccccc1 [TAMOXIFEN]
GI50 (MDA-MB-435): 3160 nM | GI50 (MCF7 [2]): 1580 nM | GI50 [3]: 10000 nM | GI50 [4]: 6300 nM | GI50 [5]: 2500 nM | GI50 (EKVX): 6300 nM | GI50 (MDA-MB-468): 2500 nM | GI50 [6]: 3160 nM | GI50 [7]: 5010 nM | IC50 (MCF7 [1]; Homo sapiens, MCF7, 72 h): 4400 nM

C/C(=C(/c1ccc(O)cc1)c1ccc(OCCN(C)C)cc1)c1ccccc1
IC50 (Estrogen receptor): 1.3 nM | IC50 (MCF7 [1]; mcf7): 1480 nM

CC(=O)Oc1ccc(/C(=C(/C)c2ccccc2)c2ccc(OCCN3CCCC3)cc2)cc1
IC50 (Estrogen receptor): 7.7 nM | IC50 (MCF7 [1]; mcf7): 2600 nM | IC50 (Estrogen receptor beta): 260 nM

CCCC(=O)Oc1ccc(/C(=C(/C)c2ccccc2)c2ccc(OCCN3CCCCC3)cc2)cc1
IC50 (Estrogen receptor): 33.3 nM | IC50 (MCF7 [1]; mcf7): 2420 nM

CCCCCCCCCC(=O)Oc1ccc(/C(=C(/C)c2ccccc2)c2ccc(OCCN3CCCCC3)cc2)cc1
IC50 (Estrogen receptor): 81 nM | IC50 (MCF7 [1]; mcf7): 1520 nM

C/C(=C(/c1ccc(O)cc1)c1ccc(OCCN2CCCCC2)cc1)c1ccccc1
IC50 (Estrogen receptor): 0.4 nM | IC50 (MCF7 [1]; mcf7): 1240 nM

CCCC(=O)Oc1ccc(/C(=C(/C)c2ccccc2)c2ccc(OCCN(C)C)cc2)cc1
IC50 (Estrogen receptor): 34.5 nM | IC50 (MCF7 [1]; mcf7): 3170 nM

CCCC(=O)Oc1ccc(/C(=C(/C)c2ccccc2)c2ccc(OCCN3CCCC3)cc2)cc1
IC50 (Estrogen receptor): 27.1 nM | IC50 (MCF7 [1]; mcf7): 1200 nM

CCCCCCCCCC(=O)Oc1ccc(/C(=C(/C)c2ccccc2)c2ccc(OCCN(C)C)cc2)cc1
IC50 (Estrogen receptor): 31.9 nM | IC50 (MCF7 [1]; mcf7): 1120 nM

CC(=O)Oc1ccc(/C(=C(\C)c2ccccc2)c2ccc(OCCN(C)C)cc2)cc1
IC50 (Estrogen receptor): 22 nM | IC50 (MCF7 [1]; mcf7): 2740 nM

CCC(=C(c1ccc(O)cc1)c1ccc(OCCN(C)C)cc1)c1ccccc1
IC50 (MCF7 [1]; Homo sapiens, MCF7, 72 h): 2790 nM
